Data published in patent US20090118274A1, “MONOCYCLIC AMINOPROPYL TETRAHYDRO-PYRAZOLO-PYRIDINE MODULATORS OF CATHEPSIN S” (priority 2007, published 2009).

These molecules were tested against T1, Recombinant human cathepsin S (CatS) (Homo sapiens, UniProt P25774) (assay: Recombinant human cathepsin S (CatS) fluorogenic substrate inhibition assay). Settings: not given.
T1 construct: made in house
Format: biochemical
Experimental: Recombinant human cathepsin S (CatS) was expressed in the baculovirus system and purified in one step with a thiopropyl-sepharose column. […] The assay is run in 150 mM sodium acetate pH 5.0 containing 1.5 mM DTT and 150 mM NaCl. […] Measurements are taken every min for 20 min. The rate is calculated from the slope of the increase in fluorescence and the percent inhibition is calculated from this.

T1 sequence (P25774 115-331): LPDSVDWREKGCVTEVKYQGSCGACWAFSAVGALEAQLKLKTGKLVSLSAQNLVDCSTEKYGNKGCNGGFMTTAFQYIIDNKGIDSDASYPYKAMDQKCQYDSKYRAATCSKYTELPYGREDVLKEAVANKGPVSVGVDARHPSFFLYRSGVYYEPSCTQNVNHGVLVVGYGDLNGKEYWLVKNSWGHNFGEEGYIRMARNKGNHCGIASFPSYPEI

SMILES	IC50 [nM]
CC(C)CC(=O)NCc1cc(-c2nn(CC(O)CN3CCC(N(C)C)C3)c3c2CN(S(C)(=O)=O)CC3)ccc1C(F)(F)F (centres unmarked) [Example 249, N-(5-{1-[3-(3-Dimethylamino-pyrrolidin-1-yl)-2-hydroxy-propyl]-5-methanesulfonyl-4,5,6,7-tetrahydro-1H-pyrazolo[4,3-c]pyridin-3-yl}-2-trifluoromethyl-benzyl)-3-methyl-butyramide]	450

Same assay, conditions: average of results obtained; substrate Z-Valine-Valine-Arginine-AMC 10 μM, pH 5.0; read-out: CatS IC50

SMILES	IC50 [nM]
CS(=O)(=O)N1CCc2c(c(-c3ccc(Cl)c(CNC(=O)c4ccc(F)cc4)c3)nn2CC(O)CN2CCC(F)CC2)C1 (centres unmarked) [Example 82, N-(2-Chloro-5-{1-[3-(4-fluoro-piperidin-1-yl)-2-hydroxy-propyl]-5-methanesulfonyl-4,5,6,7-tetrahydro-1H-pyrazolo[4,3-c]pyridin-3-yl}-benzyl)-4-fluoro-benzamide]	190
CS(=O)(=O)N1CCc2c(c(-c3ccc(C(F)(F)F)c(CNC(=O)c4ccc(F)cc4)c3)nn2CC(O)CN2CCC(CO)CC2)C1 (centres unmarked) [Example 89, 4-Fluoro-N-(5-{1-[2-hydroxy-3-(4-hydroxymethyl-piperidin-1-yl)-propyl]-5-methanesulfonyl-4,5,6,7-tetrahydro-1H-pyrazolo[4,3-c]pyridin-3-yl}-2-trifluoromethyl-benzyl)-benzamide]	90
CC(C)CC(=O)NCc1cc(-c2nn(CC(O)CN3CCC(O)CC3)c3c2CN(S(C)(=O)=O)CC3)ccc1C(F)(F)F (centres unmarked) [Example 245, N-(5-{1-[2-Hydroxy-3-(4-hydroxy-piperidin-1-yl)-propyl]-5-methanesulfonyl-4,5,6,7-tetrahydro-1H-pyrazolo[4,3-c]pyridin-3-yl}-2-trifluoromethyl-benzyl)-3-methyl-butyramide]	270
CC(=O)Nc1ccc(C(=O)NCc2cc(-c3nn(CC(O)CN4CCCC4)c4c3CN(S(C)(=O)=O)CC4)ccc2C(F)(F)F)cc1 (centres unmarked) [Example 240, 4-Acetylamino-N-{5-[1-(2-hydroxy-3-pyrrolidin-1-yl-propyl)-5-methanesulfonyl-4,5,6,7-tetrahydro-1H-pyrazolo[4,3-c]pyridin-3-yl]-2-trifluoromethyl-benzyl}-benzamide]	970
CS(=O)(=O)N1CCc2c(c(-c3ccc(C(F)(F)F)c(CNC(=O)c4cccc(F)c4)c3)nn2CC(O)CN2CCCC2)C1 (centres unmarked) [Example 215, 3-Fluoro-N-{5-[1-(2-hydroxy-3-pyrrolidin-1-yl-propyl)-5-methanesulfonyl-4,5,6,7-tetrahydro-1H-pyrazolo[4,3-c]pyridin-3-yl]-2-trifluoromethyl-benzyl}-benzamide]	580
Cc1cc(C(=O)NCc2cc(-c3nn(CC(O)CN4CCCC4)c4c3CN(S(C)(=O)=O)CC4)ccc2C(F)(F)F)ccc1F (centres unmarked) [Example 96, 4-Fluoro-N-{5-[1-(2-hydroxy-3-pyrrolidin-1-yl-propyl)-5-methanesulfonyl-4,5,6,7-tetrahydro-1H-pyrazolo[4,3-c]pyridin-3-yl]-2-trifluoromethyl-benzyl}-3-methyl-benzamide]	240
CS(=O)(=O)N1CCc2c(c(-c3ccc(C(F)(F)F)c(CNC(=O)C4CCCCCC4)c3)nn2CC(O)CN2CCCC2)C1 (centres unmarked) [Example 160, Cycloheptanecarboxylic acid 5-[1-(2-hydroxy-3-pyrrolidin-1-yl-propyl)-5-methanesulfonyl-4,5,6,7-tetrahydro-1H-pyrazolo[4,3-c]pyridin-3-yl]-2-trifluoromethyl-benzylamide]	320
CS(=O)(=O)N1CCc2c(c(-c3ccc(C(F)(F)F)c(CNC(=O)c4ccc(F)cc4)c3)nn2CC(O)CN2CCCCC2)C1 (centres unmarked) [Example 24, 4-Fluoro-N-{5-[1-(2-hydroxy-3-piperidin-1-yl-propyl)-5-methanesulfonyl-4,5,6,7-tetrahydro-1H-pyrazolo[4,3-c]pyridin-3-yl]-2-trifluoromethyl-benzyl}-benzamide]	250
CS(=O)(=O)NCc1cc(-c2nn(CC(O)CN3CCCC3)c3c2CN(S(C)(=O)=O)CC3)ccc1C(F)(F)F (centres unmarked) [Example 195, N-{5-[1-(2-Hydroxy-3-pyrrolidin-1-yl-propyl)-5-methanesulfonyl-4,5,6,7-tetrahydro-1H-pyrazolo[4,3-c]pyridin-3-yl]-2-trifluoromethyl-benzyl}-methanesulfonamide]	6500
CS(=O)(=O)N1CCc2c(c(-c3ccc(Cl)c(CNC(=O)c4ccccc4)c3)nn2CC(O)CN2CCCC2)C1 (centres unmarked) [Example 69, N-{2-Chloro-5-[1-(2-hydroxy-3-pyrrolidin-1-yl-propyl)-5-methanesulfonyl-4,5,6,7-tetrahydro-1H-pyrazolo[4,3-c]pyridin-3-yl]-benzyl}-benzamide]	500
CNC(=O)CCc1cc(-c2nn(CCCN3CCOCC3)c3c2CN(S(C)(=O)=O)CC3)ccc1Cl [Example 294, 3-{2-Chloro-5-[5-methanesulfonyl-1-(3-morpholin-4-yl-propyl)-4,5,6,7-tetrahydro-1H-pyrazolo[4,3-c]pyridin-3-yl]-phenyl}-N-methyl-propionamide]	16500
CC(=O)NC1CCN(CC(O)Cn2nc(-c3ccc(C(F)(F)F)c(CNC(=O)CC(C)C)c3)c3c2CCN(S(C)(=O)=O)C3)C1 (centres unmarked) [Example 278, N-(5-{1-[3-(3-Acetylamino-pyrrolidin-1-yl)-2-hydroxy-propyl]-5-methanesulfonyl-4,5,6,7-tetrahydro-1H-pyrazolo[4,3-c]pyridin-3-yl}-2-trifluoromethyl-benzyl)-3-methyl-butyramide]	380
CS(=O)(=O)N1CCc2c(c(-c3ccc(C(F)(F)F)c(CNC(=O)c4ccc(F)cc4)c3)nn2CC(O)CN2CCC(CCO)CC2)C1 (centres unmarked) [Example 91, 4-Fluoro-N-[5-(1-{2-hydroxy-3-[4-(2-hydroxy-ethyl)-piperidin-1-yl]-propyl}-5-methanesulfonyl-4,5,6,7-tetrahydro-1H-pyrazolo[4,3-c]pyridin-3-yl)-2-trifluoromethyl-benzyl]-benzamide]	160
CS(=O)(=O)N1CCc2c(c(-c3ccc(C(F)(F)F)c(CNS(=O)(=O)Cc4ccccc4)c3)nn2CCCN2CCC3(CCNC3=O)CC2)C1 [Example 67, N-(5-{5-Methanesulfonyl-1-[3-(1-oxo-2,8-diaza-spiro[4.5]dec-8-yl)-propyl]-4,5,6,7-tetrahydro-1H-pyrazolo[4,3-c]pyridin-3-yl}-2-trifluoromethyl-benzyl)-C-phenyl-methanesulfonamide]	2200
CC1CCN(CC(O)Cn2nc(-c3ccc(C(F)(F)F)c(CNC(=O)c4ccc(F)cc4)c3)c3c2CCN(S(C)(=O)=O)C3)CC1 (centres unmarked) [Example 22, 4-Fluoro-N-(5-{1-[2-hydroxy-3-(4-methyl-piperidin-1-yl)-propyl]-5-methanesulfonyl-4,5,6,7-tetrahydro-1H-pyrazolo[4,3-c]pyridin-3-yl}-2-trifluoromethyl-benzyl)-benzamide]	100
CS(=O)(=O)N1CCc2c(c(-c3ccc(C(F)(F)F)c(CNCc4ccccc4)c3)nn2CC(O)CN2CCCC2)C1 (centres unmarked) [Example 205, 1-{3-[3-(Benzylamino-methyl)-4-trifluoromethyl-phenyl]-5-methanesulfonyl-4,5,6,7-tetrahydro-pyrazolo[4,3-c]pyridin-1-yl}-3-pyrrolidin-1-yl-propan-2-ol]	1630
CC(=O)NC1CCN(CC(O)Cn2nc(-c3ccc(C(F)(F)F)c(CNC(=O)CC(C)C)c3)c3c2CCN(S(C)(=O)=O)C3)CC1 (centres unmarked) [Example 250, N-(5-{1-[3-(4-Acetylamino-piperidin-1-yl)-2-hydroxy-propyl]-5-methanesulfonyl-4,5,6,7-tetrahydro-1H-pyrazolo[4,3-c]pyridin-3-yl}-2-trifluoromethyl-benzyl)-3-methyl-butyramide]	50
CS(=O)(=O)N1CCc2c(c(-c3ccc(C(F)(F)F)c(CNC(=O)c4ccc(F)cc4)c3)nn2CC(O)CN2CCCC(O)C2)C1 (centres unmarked) [Example 92, 4-Fluoro-N-(5-{1-[2-hydroxy-3-(3-hydroxy-piperidin-1-yl)-propyl]-5-methanesulfonyl-4,5,6,7-tetrahydro-1H-pyrazolo[4,3-c]pyridin-3-yl}-2-trifluoromethyl-benzyl)-benzamide]	170
CC(C)=CC(=O)NCc1cc(-c2nn(CC(O)CN3CCC(C(C)(C)C)CC3)c3c2CN(S(C)(=O)=O)CC3)ccc1C(F)(F)F (centres unmarked) [Example 273, 3-Methyl-but-2-enoic acid 5-{1-[3-(4-tert-butyl-piperidin-1-yl)-2-hydroxy-propyl]-5-methanesulfonyl-4,5,6,7-tetrahydro-1H-pyrazolo[4,3-c]pyridin-3-yl}-2-trifluoromethyl-benzylamide]	30
CC1(C)CCN(CCCn2nc(-c3ccc(C(F)(F)F)c(CNCc4ccc(F)cc4)c3)c3c2CCN(C(=O)CO)C3)CC1 [Example 297, 1-(1-[3-(4,4-Dimethyl-piperidin-1-yl)-propyl]-3-{3-[(4-fluoro-benzylamino)-methyl]-4-trifluoromethyl-phenyl}-1,4,6,7-tetrahydro-pyrazolo[4,3-c]pyridin-5-yl)-2-hydroxy-ethanone]	180
CS(=O)(=O)N1CCc2c(c(-c3ccc(C(F)(F)F)c(CNC(=O)CN4CCOCC4)c3)nn2CCCN2CCC(N3CCCC3=O)CC2)C1 [Example 39, N-[5-(5-Methanesulfonyl-1-{3-[4-(2-oxo-pyrrolidin-1-yl)-piperidin-1-yl]-propyl}-4,5,6,7-tetrahydro-1H-pyrazolo[4,3-c]pyridin-3-yl)-2-trifluoromethyl-benzyl]-2-morpholin-4-yl-acetamide]	440
CS(=O)(=O)N1CCc2c(c(-c3ccc(C(F)(F)F)c(CNC(=O)c4ccccc4)c3)nn2CCCN2CCC3(CCNC3=O)CC2)C1 [Example 144, N-(5-{5-Methanesulfonyl-1-[3-(1-oxo-2,8-diaza-spiro[4.5]dec-8-yl)-propyl]-4,5,6,7-tetrahydro-1H-pyrazolo[4,3-c]pyridin-3-yl}-2-trifluoromethyl-benzyl)-benzamide]	110
